According to patent US9023635B2, “Bacterial methods” (Imperial Innovations Limited, priority 2010, dated 2015):

Assays:
[1] = tested on: PrkC-SAV expressing spores with biotinylated azide and alkyne; conditions: all click reaction components present; FIG. 26
Description: For all PrkC-SAV spore reactions, 100 nM of biotinylated ‘sensor’ was added to 100 μl reactions of spores at a concentration of OD600 ˜1. […] All reactions were carried out at room temperature. Controls for PrkC-SAV spore experiments omitted each reagent/parameter tested and the affect on germination was assessed. After addition of germinant, terbium was added to a final concentration of 5 μM and fluorescence visualized on a UV transilluminator (Biorad), at periodic time points. A DPA standard was imaged using known concentrations and correlated to fluorescent pixels.
PrkC-SAV expressing spores were incubated in the presence of biotinylated azide and alkyne groups with copper (FIG. 25). DPA release, i.e. germination, was measured by fluorescence in the presence of terbium as described in previous Examples.

[2] = tested on: bacterial spore with prkC intracellular and transmembrane domain and the extracellular EPOR domain; test: Germination of bacterial spores expressing chimeric prkC-EPOR receptor; format: cell-based, Bacillus subtilis
[3] = tested on: bacterial spores in the absence of the chimeric protein; test: Germination of bacterial spores in the absence of the prkC-EPOR chimeric protein; format: cell-based, Bacillus subtilis
[4] = tested on: prkC-SAV spores with complementary biotinylated oligos; test: Germination of prkC-SAV spores with structure-switching anti-thrombin aptamers; format: cell-based; conditions: FIG. 30
Excerpt: Hall et al (2009) describe a method for protein detection using structure switching aptamers. The well-known example of thrombin as a target, described in the Introduction by Hall et al, was utilised to assess the use of bacterial spores as an alternative readout to release of a quencher from a fluorophore, as illustrated in FIGS. 29-30.

[5] = tested on: prkC-SAV spores with biotinylated aptamers; test: Germination of prkC-SAV spores with biotinylated anti-PDGF aptamers; format: cell-based; conditions: FIG. 28
Excerpt: Presence of the target protein results in binding of the protein by the aptamers, dimerisation of the prkC proteins, and germination of the spores, which can be detected, for example, using methods described in previous Examples.

O=S(=O)([O-])[O-].[Cu+2] [copper, copper (II) sulfate]
germination (DPA release) versus controls omitting azide/alkyne or copper [1]: significant increase in germination

erythropoietin [EPO]
germination efficiency with increased concentration ([2]; FIG. 13, increased concentration of EPO): increase in germination efficiency | germination of spores ([2]; spores expressing prkC-EPOR chimera): stimulation of germination | germination of spores [3]: does not stimulate the germination

thrombin
target protein concentration of optimal detection [4]: 100 nm

B1: PDGF-BB: platelet derived growth factor, in the BB homodimer form (protein, UniProt P01127 82-190, looked up)
Platelet-derived growth …: SLGSLTIAEPAMIAECKTRTEVFEISRRLIDRTNANFLVWPPCVEVQRCSGCCNNRNVQCRPTQVQLRPVQVRKIEIVRKKPIFKKATVTLEDHLACKCETVAAARPVT
modifications: BB homodimer
notes: platelet derived growth factor, in the BB homodimer form
target protein concentration of optimal detection [5]: 0.1 nM
